Data taken from patent US10736822B2, “Root canal treatment material and root canal treatment kit” (FUJIFILM Corporation, priority 2016, dated 2020).

Test: Evaluation of curability under moist environment (distilled water added, Vicat needle)
Assay type: physicochemical
Details: conclusion in words from Table 1
Method: The curability of each of the root canal treatment materials according to the examples and the comparative examples was evaluated through the following method. First, a cylindrical mold having an inner diameter of 5 mm and a height of 1 mm was filled with each of the root canal treatment materials which was then subjected to light irradiation with a light irradiator (“G-Light Prima II Plus” manufactured by GC) for 40 seconds to produce a test piece. […] A needle mark was visually checked and evaluated according to the following criteria.
The curability of each of the root canal treatment materials according to the examples and the comparative examples was evaluated in a moist environment through the following method. First, 15 μL of distilled water was added to 0.15 g of each of the root canal treatment materials which was then subjected to light irradiation with the light irradiator (“G-Light Prima II Plus” manufactured by GC) for 20 seconds to produce a test piece. The curability of each of the obtained test pieces was evaluated in the same manner as in <Evaluation of Curability> described above.

Structure (SMILES): C=CC(=O)NCCCOCC(COCCCNC(=O)C=C)(COCCCNC(=O)C=C)NC(=O)C=C [compound (I)]
- curability in a moist environment: particularly excellent curability in a moist environment
